Measurements as given in patent US20260076372A1, “SPRAYABLE ANTIFUNGAL COMPOSITION FOR USE IN THE FIELD OF AGRICULTURE, AND ASSOCIATED METHOD AND USE” (GAIAGO, priority 2022, published 2026).
Converted amounts (≈) assume the structure as drawn. “And” between values parts separate entries of the source, which are not always exact repeats. Equal values may be shown once.

Legend:
[1] = system: Plasmopara viticola; assay: in vitro antifungal action of single ingredients on Plasmopara viticola; format: cell-based
Source text: In Vitro Results Showing the Syngergistic Action of Yucca Juice with the Other Compounds of the Composition According to the Invention on A. solani, Z. tritici, and Plasmopara viticola,
The following tables show in vitro the synergistic antifungal action between yucca juice and the other compounds of the composition of the invention on various pathogens. The concentrations given are as a mass %. The solutions tested as aqueous solutions.
Mo denotes sodium molybdate, Bo denotes boron ethanolamine.

[2] = system: Septoria tritici (Zymoseptoria tritici); assay: in vitro 96-well micro-titration test on Septoria tritici / Zymoseptoria tritici; format: cell-based; conditions: for EC50: Zymoseptoria tritici, S. tritici, Table 12, read-out: EC50 (μg/ml or ppm)
[3] = system: Alternaria solani; assay: in vitro 96-well micro-titration test on Alternaria solani spores; format: cell-based; conditions: for EC95 (%): A. solani, Table 22, ingredient alone in water
[4] = system: Fusarium graminearum; assay: microbe, parasite or virus in culture; format: cell-based; conditions: for EC95 (μg/ml or ppm) / EC50: Fusarium graminearum; for EC95 (μg/ml or ppm): Table 9; for EC50: read-out: EC50 (μg/ml or ppm)
[5] = system: Pythium ultimum; assay: in vitro test on P. ultimum; conditions: for EC50: Globisporangium ultimum, read-out: EC50 (μg/ml or ppm); for EC95 (μg/ml or ppm): P. ultimum, Table 14
Experimental: The evaluations were performed with a 96-well micro-titration test to evaluate the in vitro fungicidal activity of each solution.
Three repetitions (wells) were carried out. The value of the concentration making it possible to inhibit the growth of each pathogen (EC50) to 50% was determined using the optical density measurement.

[6] = Concentration 0.05% mass of the stated aqueous solution

For `O=S(=O)([O-])[O-].[Zn+2]` [Zn 7%], the “in vitro activity against Plasmopara viticola, ingredient alone in water” value (shortened to “in vitro activity”) ([1]; Concentration 0.05%) was 7.02%, the “in vitro activity” value ([1]; Concentration 0.50%) was 50.25% and the “in vitro activity” value ([1]; Concentration 1.00%) was 65.51%. The “in vitro activity” value ([1]; Concentration 2.00%) was 99.08%, the “in vitro activity” value ([1]; Concentration 3.00%) was 99.29% and the “in vitro activity” value ([1]; Concentration 6.00%) was 98.93%. The “in vitro activity” value ([1]; Concentration 10.00%) was 99.08%, the “inhibition of Z. tritici, ingredient alone in water” value (“inhibition of Z. tritici” for short) ([2]; Concentration 0.05%) was −4.9% and the “inhibition of Z. tritici” value ([2]; Concentration 0.50%) was 28.1%. For the same compound, the “inhibition of Z. tritici” value ([2]; Concentration 1.00%) was 39.8%, the “inhibition of Z. tritici” value ([2]; Concentration 2.00%) was 44.1% and the “inhibition of Z. tritici” value ([2]; Concentration 3.00%) was 47.4%. For the same compound, the “inhibition of Z. tritici” value ([2]; Concentration 6.00%) was 65.0%, the “inhibition of Z. tritici” value ([2]; Concentration 10.00%) was 77.2% and the “EC95 (%)” value ([2]; Z. tritici, Table 23, ingredient alone in water) was over 10%. The “EC95 (%)” value [3] was over 10%, the “inhibition of A. solani, ingredient alone in water” value (shortened to “inhibition of A. solani”) [3, 6] was −1.4% and the “inhibition of A. solani” value ([3]; Concentration 0.50%) was 6.3%. The “inhibition of A. solani” value ([3]; Concentration 1.00%) was 16.6%, the “inhibition of A. solani” value ([3]; Concentration 2.00%) was 32.1% and the “inhibition of A. solani” value ([3]; Concentration 3.00%) was 37.2%. The “inhibition of A. solani” value ([3]; Concentration 6.00%) was 49.7% and the “inhibition of A. solani” value ([3]; Concentration 10.00%) was 59.1%.
In the case of `Oc1ccc(/C=C/c2cc(O)cc(O)c2)cc1` [resveratrol, 5-[(E)-2-(4-hydroxyphenyl)-ethenyl]benzene-1,3-diol], the “inhibition of Fusarium graminearum” value ([4]; 0.0064 μg/ml or ppm) is reported as 0.30%, the “inhibition of Fusarium graminearum” value ([4]; 0.032 μg/ml or ppm) is reported as −2.90% and the “inhibition of Fusarium graminearum” value ([4]; 0.16 μg/ml or ppm) is reported as −3.90%. The “inhibition of Fusarium graminearum” value ([4]; 0.8 μg/ml or ppm) was −1.60%, the “inhibition of Fusarium graminearum” value ([4]; 4 μg/ml or ppm) was −3.80% and the “inhibition of Fusarium graminearum” value ([4]; 20 μg/ml or ppm) was 18.20%. For the same compound, the “inhibition of Fusarium graminearum” value ([4]; 100 μg/ml or ppm) was 53.30%, the “inhibition of Fusarium graminearum” value ([4]; 100 μg/ml or ppm, listed as Resveratrol (trans)) was “more than 50%” and the “EC95 (μg/ml or ppm)” value [4] was >100 μg/ml or ppm. The EC50 [4] was 29.5 µg/mL (≈ 129 µM), the “inhibition of P. ultimum” value ([5]; 0.0064 μg/ml or ppm) was −8.20% and the “inhibition of P. ultimum” value ([5]; 0.032 μg/ml or ppm) was −0.30%. For the same compound, the “inhibition of P. ultimum” value ([5]; 0.16 μg/ml or ppm) was 0.00%, the “inhibition of P. ultimum” value ([5]; 0.8 μg/ml or ppm) was −1.70% and the “inhibition of P. ultimum” value ([5]; 4 μg/ml or ppm) was 23.30%. The “inhibition of P. ultimum” value ([5]; 20 μg/ml or ppm) was 72.40%, the “inhibition of P. ultimum” value ([5]; 100 μg/ml or ppm) was 100% and 101.30% and the EC50 [5] was 8.89 µg/mL (≈ 38.9 µM). The “EC95 (μg/ml or ppm)” value [5] was 73.85 μg/ml or ppm, the “% inhibition of pathogen growth (S. tritici)” value (shortened to “% inhibition”) ([2]; 0.0064 μg/ml or ppm) was 0.00% and the “% inhibition” value ([2]; 0.032 μg/ml or ppm) was −0.40%. For the same compound, the “% inhibition” value ([2]; 0.16 μg/ml or ppm) was −0.40%, the “% inhibition” value ([2]; 0.8 μg/ml or ppm) was 0.60% and the “% inhibition” value ([2]; 4 μg/ml or ppm) was −2.60%. For the same compound, the “% inhibition” value ([2]; 20 μg/ml or ppm) was −2.00%, the “% inhibition” value ([2]; 100 μg/ml or ppm) was 104.90% and the EC50 [2] was 72 µg/mL (≈ 315 µM). For the same compound, the “concentration showing efficacy against Septoria tritici” value ([2]; in vitro) was 100 ppm, the “inhibition (%) of A. solani growth” value ([3]; 0.0064 μg/ml or ppm in water) was 6.20% and the “inhibition (%) of A. solani growth” value ([3]; 0.032 μg/ml or ppm in water) was 13.60%. The “inhibition (%) of A. solani growth” value ([3]; 0.16 μg/ml or ppm in water) was 13.70%, the “inhibition (%) of A. solani growth” value ([3]; 0.8 μg/ml or ppm in water) was 16.10% and the “inhibition (%) of A. solani growth” value ([3]; 4 μg/ml or ppm in water) was 11.20%. The “inhibition (%) of A. solani growth” value ([3]; 20 μg/ml or ppm in water) was 28.70% and the “inhibition (%) of A. solani growth” value ([3]; 100 μg/ml or ppm in water) was 54.7%.
For `C[C@@H]1CC[C@@]2(OC1)O[C@H]1C[C@H]3[C@@H]4CC[C@@H]5C[C@@H](O)CC[C@]5(C)[C@H]4CC[C@]3(C)[C@H]1[C@@H]2C` [smilagenin, (25R)-5beta-Spirostan-3beta-ol], the “inhibition of Fusarium graminearum” value ([4]; 0.0064 μg/ml or ppm) was 5.00%, the “inhibition of Fusarium graminearum” value ([4]; 0.032 μg/ml or ppm) was −2.60% and the “inhibition of Fusarium graminearum” value ([4]; 0.16 μg/ml or ppm) was −0.80%. For the same compound, the “inhibition of Fusarium graminearum” value ([4]; 0.8 μg/ml or ppm) was 2.40%, the “inhibition of Fusarium graminearum” value ([4]; 4 μg/ml or ppm) was 1.50% and the “inhibition of Fusarium graminearum” value ([4]; 20 μg/ml or ppm) was −8.70%. For the same compound, the “inhibition of Fusarium graminearum” value ([4]; 100 μg/ml or ppm) was 2.00%, the “EC95 (μg/ml or ppm)” value [4] was >100 μg/ml or ppm and the EC50 [4] was over 100 µg/mL. For the same compound, the “inhibition of P. ultimum” value ([5]; 0.0064 μg/ml or ppm) was −6.70%, the “inhibition of P. ultimum” value ([5]; 0.032 μg/ml or ppm) was 0.00% and the “inhibition of P. ultimum” value ([5]; 0.16 μg/ml or ppm) was −0.60%. The “inhibition of P. ultimum” value ([5]; 0.8 μg/ml or ppm) was 0.10%, the “inhibition of P. ultimum” value ([5]; 4 μg/ml or ppm) was −3.40% and the “inhibition of P. ultimum” value ([5]; 20 μg/ml or ppm) was −0.10%. For the same compound, the “inhibition of P. ultimum” value ([5]; 100 μg/ml or ppm) was 0.00%, the EC50 [5] was over 100 µg/mL and the “EC95 (μg/ml or ppm)” value [5] was >100 μg/ml or ppm. For the same compound, the “% inhibition” value ([2]; 0.0064 μg/ml or ppm) was −3.90%, the “% inhibition” value ([2]; 0.032 μg/ml or ppm) was −2.30% and the “% inhibition” value ([2]; 0.16 μg/ml or ppm) was −1.90%. For the same compound, the “% inhibition” value ([2]; 0.8 μg/ml or ppm) was −9.50%, the “% inhibition” value ([2]; 4 μg/ml or ppm) was 0.00% and the “% inhibition” value ([2]; 20 μg/ml or ppm) was −2.10%. For the same compound, the “% inhibition” value ([2]; 100 μg/ml or ppm) was −0.20%, the EC50 [2] was over 100 µg/mL and the “inhibition (%) of A. solani growth” value ([3]; 0.0064 μg/ml or ppm in water) was 7.9%. For the same compound, the “inhibition (%) of A. solani growth” value ([3]; 0.032 μg/ml or ppm in water) was 10.1%, the “inhibition (%) of A. solani growth” value ([3]; 0.16 μg/ml or ppm in water) was 19.6% and the “inhibition (%) of A. solani growth” value ([3]; 0.8 μg/ml or ppm in water) was 22.6%. For the same compound, the “inhibition (%) of A. solani growth” value ([3]; 4 μg/ml or ppm in water) was 28.0%, the “inhibition (%) of A. solani growth” value ([3]; 20 μg/ml or ppm in water) was 29.3% and the “inhibition (%) of A. solani growth” value ([3]; 40 μg/ml or ppm in water) was 30%.
For boron ethanolamine [Bo 0.49%], the “in vitro activity” value ([1]; Concentration 0.05%) was 17.33%, the “in vitro activity” value ([1]; Concentration 0.50%) was 68.80% and the “in vitro activity” value ([1]; Concentration 1.00%) was 84.60%. For the same compound, the “in vitro activity” value ([1]; Concentration 2.00%) was 90.99%, the “in vitro activity” value ([1]; Concentration 3.00%) was 95.55% and the “in vitro activity” value ([1]; Concentration 6.00%) was 98.96%. For the same compound, the “in vitro activity” value ([1]; Concentration 10.00%) was 99.00%, the “inhibition of Z. tritici” value ([2]; Concentration 0.05%) was 8.6% and the “inhibition of Z. tritici” value ([2]; Concentration 0.50%) was 7.6%. The “inhibition of Z. tritici” value ([2]; Concentration 1.00%) was 5.3%, the “inhibition of Z. tritici” value ([2]; Concentration 2.00%) was −1.6% and the “inhibition of Z. tritici” value ([2]; Concentration 3.00%) was −0.8%. For the same compound, the “inhibition of Z. tritici” value ([2]; Concentration 6.00%) was −4.3%, the “inhibition of Z. tritici” value ([2]; Concentration 10.00%) was −1.0% and the “EC95 (%)” value [3] was over 10%. For the same compound, the “inhibition of A. solani” value [3, 6] was 6.5%, the “inhibition of A. solani” value ([3]; Concentration 0.50%) was 0.9% and the “inhibition of A. solani” value ([3]; Concentration 1.00%) was −0.5%. The “inhibition of A. solani” value ([3]; Concentration 2.00%) was −2.6%, the “inhibition of A. solani” value ([3]; Concentration 3.00%) was 2.4% and the “inhibition of A. solani” value ([3]; Concentration 6.00%) was −3.6%. For the same compound, the “inhibition of A. solani” value ([3]; Concentration 10.00%) was −3.3%.
